pEC50: −log10 of the molar value. A value given as a limit tells only on which side of the number the result lay.

What is called pEC50 is −log10 of the EC50, conventionally taken in molar units.

The first experiment concerns monocistronic NK5.1 HCV replicon in Huh7 cells. Nature of the experiment: HCV replicon assay, monocistronic replicon cell line. In kind it is cell-based, hepatitis C virus. Particulars: Hepatitis C virus, Huh-7, 72 h, read-out: Mono EC50 Median. The source says: HCV Replicon Assays (Replicon EC50 (μM))
HCV replication can be measured by a replicon assay such as described by Vrolijk et al, J. Virol. Methods 110:201(2003), which is hereby incorporated in its entirety by reference. The method was implemented as follows.
Monocistronic Replicon Cell Line:
Human hepatocyte Huh7 cells containing the monocistronic NK5.1 replicon were obtained from Ralf Bartenschlager at the University of Mainz, Germany. These cells were maintained under hygromycin selection and passaged when 80-90% confluent.
This cell line contains an autonomously replicating RNA element (replicon) incorporating the non-structural HCV elements necessary for replication, and upon which the survival of the replicon in the cell depends. This replicon contains a single internal ribosome entry site (HCV IRES). Inhibition of any of the critical HCV finctions by a compound leads to loss of the replicon as measured by HCV replicon RNA copy number reduction. The amount of HCV RNA present following a standard incubation with a compound is a measure of the anti-HCV activity of the compound. The assay was conducted by preparing sufficient 96-well plates containing these cells, wherein cells are seeded at 6000 cells/well in a 96-well plate, in 200 μl of final media volume. Cells were then incubated for 24 hours at 37 C., 5% CO2, and 95% humidity before compound was added. Six point half-log concentration response assays were conducted to determine potency/EC50 of Formula I compounds to inhibit HCV replicon replication. The final percent DMSO acceptable in this assay system is 0.6%. Compounds were diluted in media in an appropriate format and 5 μl of each drug dilution is added to each well. Cells were then incubated with compounds for 3 days at 37 C., 5% CO2, and 95% humidity. Following the three day incubation period, plates were washed twice with phosphate buffered saline to remove media and cells were lysed with Qiagen extraction buffer. RNA was extracted and isolated with the Qiagen RNAeasy kit according to the manufacturer's protocol (Qiagen). TaqMan One-Step RT-PCR was used in conjunction with an ABI 7700 Sequence Detector (Applied Biosystems) for the quantitation and analysis of HCV replicon RNA copy number. A GAPDH probe was used for internal normalization. The ratio of HCV RNA to cellular GAPDH RNA was determined and compared to the DMSO-only treated control, and the ratio of HCV RNA/GAPDH RNA was used for an EC50 determination and as a measure of specificity for inhibition of the HCV replicon.
A general note: Replicon systems follow genome replication, usually without infectious particles.
Turning to `O=[N+]([O-])c1ccc(-c2nc(-c3ncccc3[N+](=O)[O-])no2)c(Cl)c1` [Compound 167, 2-[5-(2-Chloro-4-nitro-phenyl)-[1,2,4]oxadiazol-3-yl]-3-nitro-pyridine], the pEC50 is 4.92. The same measure, in the same setting: the result for `O=[N+]([O-])c1cccc(-c2nc(-c3ncccc3[N+](=O)[O-])no2)c1` [Compound 156, 3-Nitro-2-[5-(3-nitro-phenyl)-[1,2,4]oxadiazol-3-yl]-pyridine] reads less than 4.72.

The same experiment, now with this note: Hepatitis C virus, Huh-7, 72 h; Table 1; monocistronic replicon in Huh7 cells, 3 days incubation, HCV RNA/GAPDH RNA by TaqMan RT-PCR; read-out: Mono EC50 Median.
For the compound `Cc1cccnc1-n1ccc(-c2cc(Br)ccc2O)n1` [Compound 99, 4-Bromo-2-[1-(3-methyl-pyridin-2-yl)-1H-pyrazol-3-yl]-phenol], the pEC50 was 5.44. The same measure, in the same setting: the result for `COc1cc(O)c(-c2nc(-c3ncccc3C)no2)c(OC)c1` [Compound 240, 3,5-Dimethoxy-2-[3-(3-methyl-pyridin-2-yl)-[1,2,4]oxadiazol-5-yl]-phenol] reads 6.15; that for `COc1ccccc1-c1ccn(-c2ncccc2C(F)(F)F)n1` [Compound 38, 2-[3-(2-Methoxy-phenyl)-pyrazol-1-yl]-3-trifluoromethyl-pyridine], 4.89. Consider `COc1ccc(O)c(-c2nc(-c3ncccc3C)no2)c1` [Compound 185, 4-Methoxy-2-[3-(3-methyl-pyridin-2-yl)-[1,2,4]oxadiazol-5-yl]-phenol], for which the pEC50 was 5.80.

Consider `Cc1cc(-c2c(O)ccc3ccccc23)nn1-c1ccc(C(C)C)cc1` [Compound 13, 1-[1-(4-Isopropyl-phenyl)-5-methyl-1H-pyrazol-3-yl]-naphthalen-2-ol], for which the pEC50 was less than 4.72. On the same count and under the same terms, the result for `CN(C)c1ccc(-c2nc(-c3ncccc3-c3ccccc3)no2)c(O)c1` [Compound 231, 5-Dimethylamino-2-[3-(3-phenyl-pyridin-2-yl)-[1,2,4]oxadiazol-5-yl]-phenol] reads 5.62; that for `COc1ccc(O)c(-c2nc(-c3ccccn3)no2)c1` [Compound 147, 4-Methoxy-2-(3-pyridin-2-yl-[1,2,4]oxadiazol-5-yl)-phenol], 5.36; that for `Cc1ccc(O)c(-c2nc(-c3ccc(NC(=O)OC(C)(C)C)cn3)no2)c1` [Compound 245, {6-[5-(2-Hydroxy-5-methyl-phenyl)-[1,2,4]oxadiazol-3-yl]-pyridin-3-yl}-carbamic acid tert-butyl ester], less than 4.49. Same read-out and setting: under `Oc1ccc(Br)cc1-c1nc(-c2ncccc2-c2ccccc2)no1` [Compound 228, 4-Bromo-2-[3-(3-phenyl-pyridin-2-yl)-[1,2,4]oxadiazol-5-yl]-phenol] stands 5.66.

Still in this experiment, the particulars now being: Hepatitis C virus, Huh-7, 72 h; table T3 (compounds 471-640); monocistronic replicon in Huh7 cells, 3 days incubation, HCV RNA/GAPDH RNA by TaqMan RT-PCR; read-out: Mono EC50 Median.
Regarding `Fc1cc(-c2nc(-c3ncccc3C(F)(F)F)n[nH]2)ccc1-c1ccccc1` [Compound 538, 2-[5-(2-Fluoro-biphenyl-4-yl)-1H-[1,2,4]triazol-3-yl]-3-trifluoromethyl-pyridine], the pEC50 is less than 4.72. Turning to `Oc1ccc(O)c(-c2nc(-c3ccc(C(F)(F)F)cn3)n[nH]2)c1` [Compound 522, 4-Hydroxy-2-[5-(5-trifluoromethyl-pyridin-2-yl)-2H-[1,2,4]triazol-3-yl]-phenol], the pEC50 is less than 4.72. On the same count and under the same terms, the result for `Cn1nc(-c2ncccc2C(F)(F)F)nc1-c1cc([N+](=O)[O-])ccc1O` [Compound 640, 4-Nitro-2-[2-methyl-5-(3-trifluoromethyl-pyridin-2-yl)-2H-[1,2,4]triazol-3-yl]-phenol] reads less than 4.49; that for `CCN(CC)c1ccc(-c2nc(-c3cnccn3)n[nH]2)c(O)c1` [Compound 587, 5-Diethylamino-2-(5-pyrazin-2-yl-2H-[1,2,4]triazol-3-yl)-phenol], 4.64; that for `COc1cccc(-c2nc(-c3cnccn3)n[nH]2)c1O` [Compound 586, 6-Methoxy-2-(5-pyrazin-2-yl-2H-[1,2,4]triazol-3-yl)-phenol], less than 4.49.

Turning to `Oc1cc(OCc2ccccc2)ccc1-c1nc(-c2ncccc2C(F)(F)F)n[nH]1` [Compound 537, 5-Benzyloxy-2-[5-(3-trifluoromethyl-pyridin-2-yl)-2H-[1,2,4]triazol-3-yl]-phenol], the pEC50 is less than 4.72. The same measure, in the same setting: the result for `O=[N+]([O-])c1ccc(O)c(-c2nc(-c3cnccn3)n[nH]2)c1` [Compound 576, 4-Nitro-2-(5-pyrazin-2-yl-2H-[1,2,4]triazol-3-yl)-phenol] reads 4.80; that for `Oc1ccc2ccccc2c1-c1nc(-c2ncccc2C(F)(F)F)n[nH]1` [Compound 549, 1-[5-(3-trifluoromethyl-pyridin-2-yl)-2H-[1,2,4]triazol-3-yl]-naphthalen-2-ol], less than 4.72; that for `Oc1ccc(Br)cc1-c1nc(-c2ccc(C(F)(F)F)cn2)n[nH]1` [Compound 515, 4-Bromo-2-[5-(5-trifluoromethyl-pyridin-2-yl)-2H-[1,2,4]triazol-3-yl]-phenol], less than 4.72.

The same experiment, now with this note: Hepatitis C virus, Huh-7; monocistronic NK5.1 HCV replicon in Huh7 cells; median value; read-out: Mono EC50 Median.
For `CC(=O)Nc1ccc(-c2noc(-c3cc(C)ccc3O)n2)nc1` [Compound 264, N-{6-[5-(2-Hydroxy-5-methyl-phenyl)-[1,2,4]oxadiazol-3-yl]-pyridin-3-yl}-acetamide], the pEC50 is less than 4.72. On the same count and under the same terms, under `Cc1cccnc1-c1n[nH]c(-c2cc(F)ccc2O)n1` [Compound 443, 4-Fluoro-2-(5-(3-methyl-pyridin-2-yl)-2H-[1,2,4]triazol-3-yl)-phenol] stands less than 5.00; under `Oc1ccc2ccccc2c1-c1nnc(-c2ccccc2)o1` [Compound 304, 1-(5-Phenyl-[1,3,4]oxadiazol-2-yl)-naphthalen-2-ol], less than 4.49; under `COc1cc(O)c(-c2nc(-c3ncccc3C)no2)c(OC)c1` [Compound 240, 3,5-Dimethoxy-2-[3-(3-methyl-pyridin-2-yl)-[1,2,4]oxadiazol-5-yl]-phenol], 6.15.

As to `Oc1ccccc1-c1nnc(-c2cccs2)o1` [Compound 324, 2-(5-Thiophen-2-yl-[1,3,4]oxadiazol-2-yl)-phenol], the negative-log EC50 (pEC50) is less than 4.49. The same measure, in the same setting: the result for `COc1cccc(-c2nc(-c3ccc(NC(C)=O)cn3)no2)c1O` [Compound 260, N-{6-[5-(2-Hydroxy-3-methoxy-phenyl)-[1,2,4]oxadiazol-3-yl]-pyridin-3-yl}-acetamide] reads 4.35; that for `Cc1cccnc1-c1noc(-c2ccc(NCc3ccccc3)cc2O)n1` [Compound 288, 5-Benzylamino-2-[3-(3-methyl-pyridin-2-yl)-[1,2,4]oxadiazol-5-yl]-phenol], 6.10; that for `COc1ccc(O)c(-c2nc(-c3ccc(N)cn3)no2)c1` [Compound 252, 2-[3-(5-Amino-pyridin-2-yl)-[1,2,4]oxadiazol-5-yl]-4-methoxy-phenol], 5.04. With `Cc1cccnc1-c1noc(-c2cccc(NC(=O)OC(C)(C)C)c2O)n1` [Compound 298], the pEC50 was 6.21.

Regarding `Oc1ccccc1-c1nnc(-c2ccco2)o1` [Compound 323, 2-(5-Furan-2-yl-[1,3,4]oxadiazol-2-yl)-phenol], the pEC50 was less than 4.49.

In the case of `Cc1cccc(-c2n[nH]c(-c3ccccc3Br)n2)n1` [Compound 462, 2-[5-(2-Bromo-phenyl)-1H-[1,2,4]triazol-3-yl]-6-mehtyl-pyridine], the pEC50 is less than 4.49.

With `COc1cccc(-c2nc(-c3cnccc3C(F)(F)F)n[nH]2)c1O` [Compound 423, 6-Methoxy-2-[5-(4-trifluoromethyl-pyridin-3-yl)-2H-[1,2,4]triazol-3-yl]-phenol], the pEC50 is less than 4.72.

On to `CC(=O)Nc1ccc(O)c(-c2nc(-c3ncccc3C)no2)c1` [Compound 275, N-{4-Hydroxy-3-[3-(3-methyl-pyridin-2-yl)-[1,2,4]oxadiazol-5-yl]-phenyl}-acetamide], for which the pEC50 is 4.74.

As to `Cc1cccnc1-c1n[nH]c(-c2cccc3ccccc23)n1` [Compound 440, 3-Methyl-2-(5-naphthalen-1-yl-1H-[1,2,4]triazol-3-yl)-pyridine], the pEC50 is 5.25. Consider `Cc1cccnc1-c1noc(-c2ccc(NC(=O)c3ccccc3)cc2O)n1` [Compound 289], for which the pEC50 was 5.21. Same read-out and setting: the result for `CN(C)c1ccc(-c2nc(-c3ncccc3-c3ccccc3)no2)c(O)c1` [Compound 231, 5-Dimethylamino-2-[3-(3-phenyl-pyridin-2-yl)-[1,2,4]oxadiazol-5-yl]-phenol] reads 5.62; that for `Cc1ccc(O)c(-c2nc(-c3ccc(NC(=O)OC(C)(C)C)cn3)no2)c1` [Compound 245, {6-[5-(2-Hydroxy-5-methyl-phenyl)-[1,2,4]oxadiazol-3-yl]-pyridin-3-yl}-carbamic acid tert-butyl ester], less than 4.49. The same measure, in the same setting: under `COc1ccc(O)c(-c2nc(-c3cccc(C)n3)n[nH]2)c1` [Compound 394, 4-Methoxy-2-(5-(6-methyl-pyridin-2-yl)-2H-[1,2,4]triazol-3-yl)-phenol] stands less than 4.72. `Oc1ccc(Br)cc1-c1nc(-c2ncccc2-c2ccccc2)no1` [Compound 228, 4-Bromo-2-[3-(3-phenyl-pyridin-2-yl)-[1,2,4]oxadiazol-5-yl]-phenol]: the pEC50 is 5.66. With `Cc1cccc(-c2n[nH]c(-c3cc([N+](=O)[O-])ccc3O)n2)n1` [Compound 392, 4-Nitro-2-(5-(6-methyl-pyridin-2-yl)-2H-[1,2,4]triazol-3-yl)-phenol], the pEC50 is less than 4.72.

The values are drawn from patent US20050075375A1 (priority 2003, published 2005).
